According to the supplement of paper PMC10307832:

How the values were obtained:
Assay in all cases: relative viability (nuclei count vs DMSO), 5 days (fraction); higher = more cells survive
Midostaurin + Tozasertib = compound: CO[C@@H]1[C@H](N(C)C(=O)c2ccccc2)C[C@H]2O[C@]1(C)n1c3ccccc3c3c4c(c5c6ccccc6n2c5c31)C(=O)NC4 [Midostaurin] + Cc1cc(Nc2cc(N3CCN(C)CC3)nc(Sc3ccc(NC(=O)C4CC4)cc3)n2)n[nH]1 [Tozasertib] (partner 0.1 µM)
Method in brief: (§1)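 Relative viability is defined as nuclei in treated wells over nuclei in vehicle wells. Duplicate plates were run and medians reported. Lung cancer cell lines in 1536-well plates were dosed by pin tool one day after seeding, with one drug or with a fixed anchor-drug dose plus five library-drug doses (not always all listed) in √10 steps, and nuclei were counted after 5 days.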

Midostaurin + OSI-027 = compound: CO[C@@H]1[C@H](N(C)C(=O)c2ccccc2)C[C@H]2O[C@]1(C)n1c3ccccc3c3c4c(c5c6ccccc6n2c5c31)C(=O)NC4 [Midostaurin] + COc1cccc2cc(-c3nc([C@H]4CC[C@H](C(=O)O)CC4)n4ncnc(N)c34)[nH]c12 [OSI-027] (partner 0.5 µM)
Method in brief: as §1

[1] = compound: COc1cc(-c2nn([C@H]3CC[C@H](N4CCN(C(C)=O)CC4)CC3)c3ncnc(N)c23)ccc1NC(=O)c1cc2ccccc2n1C + CCNC(=O)c1noc(-c2cc(C(C)C)c(O)cc2O)c1-c1ccc(CN2CCOCC2)cc1 [Luminespib] (partner 0.01 µM)
Method in brief: as §1

[2] = compound: COc1cc(-c2nn([C@H]3CC[C@H](N4CCN(C(C)=O)CC4)CC3)c3ncnc(N)c23)ccc1NC(=O)c1cc2ccccc2n1C + Cc1nc(NC(=O)N2CCC[C@H]2C(N)=O)sc1-c1ccnc(C(C)(C)C(F)(F)F)c1 [Alpelisib] (partner 2 µM)
Method in brief: as §1

Midostaurin + AZD7762 = compound: CO[C@@H]1[C@H](N(C)C(=O)c2ccccc2)C[C@H]2O[C@]1(C)n1c3ccccc3c3c4c(c5c6ccccc6n2c5c31)C(=O)NC4 [Midostaurin] + NC(=O)Nc1cc(-c2cccc(F)c2)sc1C(=O)N[C@H]1CCCNC1 [AZD7762] (partner 0.2 µM)
Method in brief: as §1

Row | Cell Line | relative viability (Midostaurin + Tozasertib; first compound 0.01 µM) | relative viability (Midostaurin + Tozasertib; first compound 0.03162 µM) | relative viability (Midostaurin + Tozasertib; first compound 0.1 µM) | relative viability (Midostaurin + Tozasertib; first compound 0.3162 µM) | relative viability (Midostaurin + OSI-027; first compound 0.01 µM) | relative viability (Midostaurin + OSI-027; first compound 0.03162 µM) | relative viability (Midostaurin + OSI-027; first compound 0.1 µM) | relative viability (Midostaurin + OSI-027; first compound 0.3162 µM) | relative viability ([1]; first compound 0.0128 µM) | relative viability ([1]; first compound 0.04048 µM) | relative viability ([1]; first compound 0.128 µM) | relative viability ([1]; first compound 1.28 µM) | relative viability ([2]; first compound 0.0128 µM) | relative viability ([2]; first compound 0.04048 µM) | relative viability ([2]; first compound 0.128 µM) | relative viability ([2]; first compound 1.28 µM) | relative viability (Midostaurin + AZD7762; first compound 0.01 µM) | relative viability (Midostaurin + AZD7762; first compound 0.03162 µM) | relative viability (Midostaurin + AZD7762; first compound 0.1 µM) | relative viability (Midostaurin + AZD7762; first compound 0.3162 µM)
1 | NCI-H1944 | 0.268 | 0.269 | 0.261 | 0.232 | 0.385 | 0.399 | 0.416 | 0.411 | 0.667 | 0.647 | 0.783 | 0.477 | 0.827 | 0.879 | 0.784 | 0.506 | 0.507 | 0.616 | 0.493 | 0.56
2 | LU99A | 0.227 | 0.304 | 0.259 | 0.244 | 0.279 | 0.309 | 0.258 | 0.277 | 0.261 | 0.251 | 0.261 | 0.277 | 0.464 | 0.565 | 0.534 | 0.521 | 0.29 | 0.441 | 0.303 | 0.255
3 | NCI-H2347 | 0.494 | 0.553 | 0.616 | 0.506 | 0.453 | 0.35 | 0.365 | 0.38 | 0.619 |  | 0.576 | 0.34 | 1.05 | 0.948 | 0.924 | 1.03 | 0.799 | 0.774 | 0.712 | 0.587
4 | HCC-15 | 0.449 | 0.419 | 0.249 | 0.324 | 0.758 | 0.624 | 0.698 | 0.717 | 0.818 | 0.302 | 0.224 | 0.23 | 0.963 | 0.886 | 0.864 | 0.662 | 1.16 | 0.98 | 0.532 | 1.07
5 | HCC-44 |  | 1.04 | 0.819 | 0.778 |  | 0.501 | 0.529 | 0.401 | 1.21 | 1.27 | 1.04 | 1.01 | 0.923 | 0.763 | 0.789 | 0.511 | 0.961 | 0.978 | 0.998 | 0.986
6 | NCI-H727 | 0.704 | 0.704 | 0.575 | 0.468 | 0.673 | 0.492 | 0.538 | 0.479 | 0.417 |  | 0.343 | 0.236 | 0.62 |  | 0.454 | 0.405 | 0.616 | 0.696 | 0.947 | 0.639
7 | NCI-H2087 | 0.249 | 0.303 | 0.225 | 0.207 | 0.567 | 0.491 | 0.573 | 0.554 | 0.196 |  | 0.165 | 0.152 | 1.29 | 0.781 | 1.27 | 1.2 | 1.39 | 1.16 | 1.36 | 1.03
8 | BEN | 0.501 | 0.551 | 0.401 | 0.459 | 0.324 | 0.273 | 0.267 | 0.32 | 0.156 | 0.398 | 0.36 | 0.259 | 0.972 | 1.15 | 0.865 | 0.642 | 0.743 | 0.659 | 0.722 | 0.726
